From patent US20230092762A1, “THERAPEUTIC DELIVERY OF LOCKED NUCLEIC ACID CONJUGATED ANTISENSE MIR-1” (THE TRUSTEES OF INDIANA UNIVERSITY, priority 2020, published 2023)

Key:
[1] = tested on: human keratinocytes; assay: Respirometry assay (OCR, XF-96 Seahorse); type: cell-based; details: 20 μM, 24 h, vs vehicle control
Procedure: Respirometry Assay. The Oxygen Consumption Rate (OCR) measurements were performed using a Seahorse Bioscience XF-96 instrument. A day prior to the experiment, the sensor cartridge was hydrated overnight using the calibration buffer supplied by the manufacturer. The transfected cells were seeded in the 96 well microplate supplied by the company. On the day of the experiment, the cells were washed with the calibrant buffer twice and incubated with glucose free DMEM for 2 h at 37° C. in a CO2 free incubator. The injection ports of the sensors were filled with 20 μL of treatment or vehicle in buffer. The sensor was then placed into the XF-96 instrument and calibrated. After calibration, the calibration fluid plate was replaced with the cell plate. The measurement cycle consisted of a 2 min mix, 1 min wait, and a 2 min measurement. Four basal rate measurements were followed with injections and each injection is followed by four measurement cycles. The consumption rates were calculated from the continuous average slope of the O2 decreases using a compartmentalization model. For any one treatment, the rates from 10 wells were used. Rates for the wells were normalized for protein content. All average rates were normalized to the vehicle control basal and t-tests between control and treatment were used to assess statistical significance.

[2] = tested on: BAX; assay: Western blot analysis of BAX in human keratinocytes; type: cell-based; details: 20 μM, 24 h
Procedure: Western Blot Analysis. Immunoblotting was performed using HaCaT cell and wound tissue lysates. After protein extraction, the protein concentration was determined by BCA protein assay as described earlier. The samples (10-20 μg of protein/lane) were separated on a 4-12% SDS polyacrylamide gel electrophoresis and probed with rabbit polyclonal anti-notch1 […] antibody (1:1000 dilution, Abcam, Cambridge, Mass.), rabbit polyclonal anti-BAX antibody (1:1000 dilution, Abcam, Cambridge, Mass.), HRP conjugated anti-GAPDH (1:10,000 dilution). Bands were visualized by horseradish peroxidase-conjugated anti-rabbit-IgG raised in donkey and horseradish peroxidase-conjugated anti-mouse-IgG raised in sheep (Amersham Biosciences, Piscataway, N.J.) at 1:2,000 dilution and the enhanced chemiluminescence assay (Amersham Biosciences, Piscataway, N.J.).

[3] = tested on: human keratinocytes; assay: Measurement of mitochondrial membrane potential (JC-1 flow cytometry; TMRM/PMPI); type: cell-based
Procedure: Measurement of Mitochondrial Membrane Potential. Mitochondrial membrane potential changes were assessed by two different techniques, a) using the lipophilic cationic dye JC-1 (MitoProbe JC-1 Assay Kit for Flow Cytometry, Life technologies) per manufacturer's instruction by flow cytometer. Mitochondrial membrane potential was also evaluated b) using TMRM/PMPI after 48 hours of control/[…] mimic transfection. The images were captured by confocal microscope and the quantification of fluorescent intensity was measured using FV1000 software (Olympus, Tokyo, Japan).

[4] = tested on: breast cancer stem cells; details: phase I trial; cited from earlier work

With O=C(O)CC[C@H]1CC[C@@](c2cc(F)ccc2F)(S(=O)(=O)c2ccc(Cl)cc2)CC1 [MK-0752] the ATP production [1] was “significant decrease”, the basal respiration [1] was “significant decrease” and the “rate of oxygen consumption” value [1] was “decreased rate of oxygen consumption”. For the same molecule, the BAX dimerization [2] was “caused BAX dimerization”, the “JC-1 green fluorescence (compromised ΔΨ)” value ([3]; JC-1, 20 μM, 24 h) was “significant increase in JC-1 green fluorescence” and the TMRM fluorescence ([3]; TMRM and PMPI staining, 20 μM, 24 h) was “significant decrease in TMRM fluorescence”. The “mitochondrial membrane potential (ΔΨ)” value ([3]; studies using TMRM and PMPI) was “lowered ΔΨ” and the “breast cancer stem cells” value [4] was “reduction of breast cancer stem cells”.
